Laboratory results: ChEMBL document CHEMBL1136828, “Macrocyclic inhibitors of the bacterial cell wall biosynthesis enzyme MurD” (Bioorg Med Chem Lett, 2003)
pIC50: −log10 of the molar value.

assay: Inhibitory activity against enzyme MurD isolated from Escherichia coli

| SMILES | pIC50 |
| --- | --- |
| C[C@@H]1NC(=O)[C@H](CO)NC(=O)CCCCCC[C@@H](C(=O)O)NC1=O | 5.64 |
| C[C@@H]1NC(=O)CCCCCCC[C@@H](C(=O)O)NC(=O)[C@H](C)NC1=O | 5.49 |
| C[C@@H]1NC(=O)[C@H](COC(C)(C)C)NC(=O)CCCCCC[C@@H](C(=O)O)NC1=O | 5.05 |
| C[C@@H]1NC(=O)CCCCCCC[C@H](C(=O)O)NC(=O)[C@H](C)NC1=O | 5.82 |
| C[C@@H]1NC(=O)CCCCCC[C@H](C(=O)O)NC(=O)[C@H](C)NC1=O | 5.82 |
| C[C@@H]1NC(=O)CCCCCC[C@@H](C(=O)O)NC(=O)[C@H](C)NC1=O | 5.29 |
| C[C@@H]1NC(=O)[C@H](CO)NC(=O)CCCCCC[C@H](C(=O)O)NC1=O | 6.15 |
| C[C@@H]1NC(=O)[C@H](COC(C)(C)C)NC(=O)CCCCCC[C@H](C(=O)O)NC1=O | 5.72 |
